Experimental data published in ChEMBL document CHEMBL4014321, “Discovery of Pyrazolo[1,5-a]pyrimidine B-Cell Lymphoma 6 (BCL6) Binders and Optimization to High Affinity Macrocyclic Inhibitors” (J Med Chem, 2017).

Experiments:
[1] = Inhibition of human CK2 protein
[2] = test system: OCI-Ly1; assay: Antiproliferative activity against BCL6 dependent human OCI-LY1 cells after 3 days by CellTiter-Glo assay; type: functional; settings: OCI-Ly1, 72 h
[3] = test system: TMD8; assay: Antiproliferative activity against BCL6 dependent human TMD8 cells after 3 days by CellTiter-Glo assay; type: functional; settings: TMD8, 72 h
[4] = test system: OCI-Ly3; assay: Antiproliferative activity against BCL6 dependent human OCI-LY3 cells after 3 days by CellTiter-Glo assay; type: functional; settings: OCI-Ly3, 72 h
[5] = test system: OCI-Ly10; assay: Antiproliferative activity against BCL6 dependent human OCI-LY10 cells after 3 days by CellTiter-Glo assay; type: functional; settings: OCI-Ly10, 72 h
[6] = test system: SU-DHL-2; assay: Antiproliferative activity against BCL6 dependent human SU-DHL-2 cells after 3 days by CellTiter-Glo assay; type: functional; settings: SU-DHL-2, 72 h
[7] = test system: SUD4; assay: Antiproliferative activity against BCL6 dependent human SUDHL4 cells after 3 days by CellTiter-Glo assay; type: functional; settings: SU-DHL-4, 72 h
[8] = test system: U2932; assay: Antiproliferative activity against BCL6 dependent human U2932 cells after 3 days by CellTiter-Glo assay; type: functional; settings: U2932, 72 h
[9] = test system: KARPAS-422; assay: Antiproliferative activity against BCL6 […] human KARPAS422 cells after 3 days by CellTiter-Glo assay; type: functional; settings: KARPAS-422, 72 h
[10] = test system: OCI-LY19; assay: Antiproliferative activity against BCL6 independent human OCI-LY19 cells after 3 days by CellTiter-Glo assay; type: functional; settings: OCI-LY19, 72 h
[11] = test system: AMO1; assay: Antiproliferative activity against BCL6 dependent human AMO1 cells after 3 days by CellTiter-Glo assay; type: functional; settings: AMO1, 72 h
[12] = molecular target: T1, B-cell lymphoma 6 protein (Homo sapiens, UniProt P41182, C67R/C84N/C8Q); assay: Binding affinity to N-terminal His6-tagged human BCL6 BTB domain C8Q/C67R/C84N mutant expressed in Escherichia coli BL21 (DE3) by surface plasmon resonance spectrometry
[13] = molecular target: T1, B-cell lymphoma 6 protein; assay: Inhibition of SMRT2 H1426W mutant peptide binding to N-terminal His6-tagged human BCL6 BTB domain C8Q/C67R/C84N mutant expressed in Escherichia coli BL21 (DE3) preincubated for 30 mins followed by SMRT2 H1426W mutant peptide addition measured after 60 mins by time-resolved fluorescence resonance energy transfer assay

SMILES	IC50 [1]	GI50 [2]	GI50 [3]	GI50 [4]	GI50 [5]	GI50 [6]	GI50 [7]	GI50 [8]	GI50 [9]	GI50 [10]	GI50 [11]	Kd [12]	IC50 [13]
O=C1CCc2cc3cc(c2N1)OCCCCO[C@H]1C[C@@H](CO)N(C1)c1cc(n2ncc(Cl)c2n1)N3	1.4 µM	6.31 µM	3.16 µM	3.16 µM	2.51 µM	3.98 µM	10 µM	5.01 µM	5.01 µM	1.58 µM	3.98 µM	–	–
CCNc1cc(-c2cccnc2)nc2ccnn12	–	–	–	–	–	–	–	–	–	–	–	689 µM	–
CC(=O)Nc1ccc(-c2cc(NC3CC3)n3ncc(C#N)c3n2)cc1N1CC[C@@H](N(C)C)C1	0.012 µM	–	–	–	–	–	–	–	–	–	–	–	–
O=C1CCc2cc3cc(c2N1CC1CC(F)(F)C1)OC/C=C/CO[C@H]1C[C@@H](CO)N(C1)c1cc(n2ncc(Cl)c2n1)N3	2.1 µM	7.94 µM	10 µM	12.6 µM	7.94 µM	7.94 µM	10 µM	6.31 µM	10 µM	6.31 µM	25.1 µM	–	–
CN1C(=O)CCc2cc3cc(c21)OC/C=C/CO[C@H]1C[C@@H](CO)N(C1)c1cc(n2ncc(Cl)c2n1)N3	7 µM	6.31 µM	3.98 µM	6.31 µM	6.31 µM	3.16 µM	6.31 µM	5.01 µM	5.01 µM	5.01 µM	5.01 µM	–	–
N#Cc1cnn2c(Nc3ccc4c(c3)CCC(=O)N4)cc(N3CCCC3)nc12	–	–	–	–	–	–	–	–	–	–	–	–	2.9 µM
O=C1CCc2cc3cc(c2N1Cc1ccncc1)OC/C=C/CO[C@H]1C[C@@H](CO)N(C1)c1cc(n2ncc(Cl)c2n1)N3	> 10 µM	10 µM	10 µM	12.6 µM	10 µM	7.94 µM	10 µM	10 µM	12.6 µM	12.6 µM	20 µM	–	–
O=C(O)CCN1C(=O)/C(=C2/C(=O)Nc3ccc(Cl)cc32)SC1=S	0.69 µM	20 µM	10 µM	20 µM	12.6 µM	12.6 µM	10 µM	12.6 µM	12.6 µM	10 µM	20 µM	–	–
N#Cc1cnn2c(NC3CC3)cc(N3CCCC3)nc12	–	–	–	–	–	–	–	–	–	–	–	–	> 99 µM
N#Cc1cnn2c(Nc3ccc4c(c3)CCC(=O)N4)cc(N3CCC[C@H]3CC(=O)O)nc12	–	–	–	–	–	–	–	–	–	–	–	1.1 µM	0.35 µM
Cc1ccccc1CN1C(=O)CCc2cc3cc(c21)OC/C=C/CO[C@H]1C[C@@H](CO)N(C1)c1cc(n2ncc(Cl)c2n1)N3	> 10 µM	10 µM	20 µM	15.8 µM	10 µM	6.31 µM	6.31 µM	10 µM	> 31.6 µM	10 µM	25.1 µM	–	–
O=C1CCc2cc3cc(c2N1)OCCCCO[C@H]1C[C@@H](CO)N(C1)c1cc(n2nccc2n1)N3	> 10 µM	12.6 µM	10 µM	15.8 µM	12.6 µM	10 µM	20 µM	15.8 µM	12.6 µM	12.6 µM	12.6 µM	–	–
N#Cc1cnn2c(Nc3ccccc3)cc(N3CCCC3)nc12	–	–	–	–	–	–	–	–	–	–	–	–	> 100 µM
O=C(O)C[C@@H]1C[C@H]2CN1c1cc(n3ncc(Cl)c3n1)Nc1cc3c(c(c1)OC/C=C/CO2)N(CC1CC(F)(F)C1)C(=O)CC3	0.16 µM	15.8 µM	15.8 µM	20 µM	15.8 µM	20 µM	15.8 µM	15.8 µM	20 µM	10 µM	31.6 µM	–	–
O=C1CCc2cc3cc(c2N1CC1CC1)OC/C=C/CO[C@H]1C[C@@H](CO)N(C1)c1cc(n2ncc(Cl)c2n1)N3	2.2 µM	> 31.6 µM	25.1 µM	> 31.6 µM	20 µM	20 µM	> 31.6 µM	10 µM	> 31.6 µM	15.8 µM	> 31.6 µM	–	–
O=C1CCc2cc3cc(c2N1CCCN1CCOCC1)OC/C=C/CO[C@H]1C[C@@H](CO)N(C1)c1cc(n2ncc(Cl)c2n1)N3	5.9 µM	10 µM	10 µM	10 µM	7.94 µM	10 µM	12.6 µM	10 µM	12.6 µM	7.94 µM	12.6 µM	–	–
N#Cc1cnn2c(Nc3ccc4c(c3)CCC(=O)N4)cc(N3CCC[C@@H]3CO)nc12	–	–	–	–	–	–	–	–	–	–	–	–	0.59 µM
N#Cc1cnn2c(NC3CC3)ccnc12	–	–	–	–	–	–	–	–	–	–	–	319 µM	> 99 µM
N#Cc1cnn2c3cc(nc12)N1CC[C@@H](C1)OCCCCOc1cc(cc2c1NC(=O)CC2)N3	–	7.94 µM	5.01 µM	3.98 µM	7.94 µM	10 µM	10 µM	10 µM	7.94 µM	7.94 µM	10 µM	–	–
COc1cccc(CN2C(=O)CCc3cc4cc(c32)OC/C=C/CO[C@H]2C[C@@H](CO)N(C2)c2cc(n3ncc(Cl)c3n2)N4)c1	> 10 µM	6.31 µM	20 µM	> 31.6 µM	6.31 µM	6.31 µM	31.6 µM	15.8 µM	25.1 µM	10 µM	15.8 µM	–	–
Cc1ccc(CN2C(=O)CCc3cc4cc(c32)OC/C=C/CO[C@H]2C[C@@H](CO)N(C2)c2cc(n3ncc(Cl)c3n2)N4)cc1	> 10 µM	7.94 µM	15.8 µM	15.8 µM	12.6 µM	6.31 µM	20 µM	10 µM	> 31.6 µM	10 µM	20 µM	–	–
N#Cc1cnn2c3cc(nc12)N1C[C@H](C[C@H]1CO)OCCCCOc1cc(cc2c1NC(=O)CC2)N3	0.4 µM	25.1 µM	15.8 µM	12.6 µM	10 µM	12.6 µM	25.1 µM	15.8 µM	20 µM	15.8 µM	20 µM	–	–
COc1cccc(CN2C(=O)CCc3cc4cc(c32)OC/C=C/CO[C@H]2C[C@@H](CO)N(C2)c2cc(n3ncc(C#N)c3n2)N4)c1	1.2 µM	3.16 µM	3.98 µM	6.31 µM	3.98 µM	2.51 µM	6.31 µM	3.98 µM	5.01 µM	5.01 µM	10 µM	–	–
